Results published in US8945584B2, “Cell culture system of a hepatitis C genotype 3a and 2a chimera” (Hvidovre Hospital, priority 2007, dated 2015).

How the values were obtained:
Huh7.5 cells [1] = test: Real-time PCR (TaqMan) assay for HCV RNA titers in cell culture supernatants; assay type: cell-based, human; settings: kinetic experiment, inoculated with ~10^4 TCID50, day 6 and 9
Protocol: RNA was purified from 200 μl of heat inactivated (56° C. for 30 min) cell culture supernatant and eluted in a final volume of 50 μl using the Total Nucleic Acid Isolation Kit (Roche) in combination with the Total NA Variable Elution Volume protocol on a MagNA Pure LC Instrument (Roche). As an internal control, Phocine Distemper Virus (PDV) was added to the lysis buffer in a concentration titrated to yield a Ct of ˜32 upon real-time PCR analysis. In parallel to RNA purified from cell culture supernatants, a quantitative HCV standard panel covering RNA concentrations of 0 to 5×10^6 IU/ml in one log increments (OptiQuant HCV Panel, AcroMetrix) was analysed. […] For HCV, primers and a FAM-labelled MGB-probe were directed against the 5′ UTR and were previously shown to perform equivalently against a panel of the six major HCV genotypes in a different TaqMan assay (Engle R E, Bukh J, and Purcell R H, 2007) For PDV, a ready-to-use primer/probe mix was used (Dr. H. G. M. Niesters, Department of Virology, Erasmus Medical Centre, Rotterdam, The Netherlands). […] HCV RNA titers (IU/ml) were calculated using a standard curve created from the known concentrations of the standard panel and their corresponding Ct values (cycle number, at which the normalised fluorescence signal rises above a fixed threshold of 0.2 […] to the amount of template in the PCR reaction). […]

Huh7.5 cells [2] = test: Determination of 50% tissue culture infectious doses (TCID50) of culture supernatants; assay type: cell-based, human; settings: for infectivity titer (TCID50): day 9 post-transfection, one of 6 replicate wells infected with undiluted supernatant
Protocol: To determine the efficiency of the developed system, HCV RNA titers are determined in IU/ml (international units/ml) with Taq-Man Real-Time-PCR and infectious titers are determined with a tissue culture infectious dose-50 method. This titer indicates the dilution of the examined viral stock, at which 50% of the replicate cell cultures used in the essay become infected and is given in TCID50/ml.
In general, the TCID50 of culture supernatants was determined as previously described. Huh7.5 cells were washed with PBS, trypsinized and plated at 6×10^3 cells per well of a poly-D-lysine coated 96 well plate (Nunc). After ˜24 hrs cells were incubated with 10-fold serial dilutions of viral stock cell culture supernatant in complete growth medium. For each dilution, six replicate wells were inoculated. After incubation for 48 hrs the plate was subjected to immuno staining for NS5A as described above. Wells were evaluated by light microscopy and scored positive if at least one positive cell could be detected. TCID50 values were calculated as described by Reed and Muench.
For determination of TCID50 Huh7.5 cells were plated at 6×10^3 cells/well on a poly-D-Lysine coated 96 well plate and infected with serial dilutions of virus containing cell culture supernatant in complete growth medium in replicates of 6 wells per dilution. After incubation for 48 hours cells were stained for NS5A expression. A well was counted positive, if at least one infected cell was visible. Calculation of TCID50 was done as previously described by Reed et al. † Average of 3 independent determinations, * average of 2 independent determinations, +1 determination. HCV RNA titers were determined with an TaqMan assay. Supernatants from transfection experiments were not tested in TaqMan due to DNA/RNA input from the transfection procedure. Specific infectivity was calculated as infectious units (TCID50/ml) per genome number (IU/ml).

Huh7.5 cells [3] = test: Percentage of infected cells by immuno-staining for HCV NS5A; assay type: cell-based, human
Protocol: Analyses were carried out as previously described with modifications. Huh7.5 cells were washed with PBS, trypsinized and plated on chamber slides (Nunc). After ˜24 hours cells were washed twice with PBS and fixed 5 min with ice-cold methanol. After washing 2× with PBS and 1× with PBS/Tween (0.1% Tween-20), slides were blocked with PBS containing bovine serum albumin (BSA, 1%) and skim milk (0.2%) for 1 hour at room temperature. Endogenous peroxidase staining was reduced by adding 3% H202 in PBS for 5 min. After washing as above the 1st antibody (anti-NS5A, 9E10, a generous gift from Charles M. Rice, used at 1:200 in PBS/Tween) was added and incubated at 4° C. overnight. After washing slides were incubated with secondary antibody (ECLTM Anti-mouse IgG, horseradish peroxidase linked whole antibody, Amersham Biosciences, used at 1:300 in PBS/Tween) for 30 min at room temperature. After washing horseradish peroxidase substrate (DAB substrate kit, DAKO) was added. After incubation for 30 min, slides were washed with H2O, mounted with Fluoromount-G (Southern Biotech) and cover slipped. Percentage of infected cells was evaluated by light microscopy assigning values of 0% (no cells infected), 1%, 5%, 10-90% (in steps of 10%), 95% and 100% (all cells infected).

J6/JFH1 = test: Interferon alfa 2b treatment of infected Huh7.5 cultures, % NS5A positive cells; assay type: cell-based, hepatitis C virus
Protocol: (§1) FIG. 10. S52/JFH1 viruses are sensitive to treatment with Interferon alfa. […] Huh7.5 cells were infected with 10^4 TCID50 (MOI 0,003) of the indicated viruses. On day 5 after infection, cultures were evaluated for % of NS5A positive cells (first datapoint) and 4×10^5 cells of the respective culture were plated per well of a 6-well dish. After 24 hrs incubation, treatment with cell culture medium containing 500 IU/mL interferon alfa 2b was started. Interferon containing medium was replaced at the time points indicated by arrows. Cultures were evaluated for the % of NS5A positive cells at the indicated timepoints.
(§2) As proof of principle of using the present invention in testing of anti-hepatitis C virus substances, the effects of interferon alfa, currently used in combination therapy for HCV, were tested on the infected cell culture. […] Thus we treated Huh7.5 cell cultures infected with J6/JFH1, S52/JFH1(T2718G; A4550C) and S52/JFH1(A4550C) with cell culture medium containing 5001 U/mL interferon alfa 2b (FIG. 10). After initiation of treatment, we observed for all cultures a fast decline of HCV antigen positive cells. Thus, for J6/JFH1 and S52/JFH1(T2718G; A4550C) the percentage of NS5A positive cells was 90 and 60 the day prior to treatment, whereas only 20% and 10% NS5A positive cells were detected in the respective cultures on day 3 of treatment ([…]).
(§3) HCV cell culture systems could be important tools for testing of antiviral therapeutics. […] Thus Huh7.5 cell cultures infected with J6/JFH1, S52/JFH1(T2718G; A4550C) and S52/JFH1(A4550C) were treated with cell culture medium containing 5001 U/mL interferon alfa 2b. After initiation of treatment, a fast decline of HCV antigen positive cells was shown for all cultures. Thus, for J6/JFH1 and S52/JFH1(T2718G; A4550C) the percentage of NS5A positive cells was 90 and 60 the day prior to treatment, whereas only 20% and 10% NS5A positive cells were detected in the respective cultures on day 3 of treatment (FIG. 10).

S52/JFH1(A4550C) = test: as above; assay type: cell-based, hepatitis C virus; settings: 5001 U/mL interferon alfa 2b in medium (FIG. 10 legend: 500 IU/mL)
Protocol: as §1, §2, §3

S52/JFH1(T2718G; A4550C) = test: as above; assay type: cell-based, hepatitis C virus
Protocol: as §1, §2, §3

[4] = 5001 U/mL interferon alfa 2b in medium (FIG. 10 legend: 500 IU/mL)
[5] = day 6, cultures not treated for 48 hrs

Q: How did the “peak HCV RNA titers” value (Huh7.5 cells [1]) turn out when “S52/JFH1: intergenotypic 3a/2a recombinant HCV: Core-NS2 of strain S52, 5' UTR, NS3-NS5B and 3' UTR of JFH1” was run?
A: The value was ~10^7 copies/ml.

Q: What about the “infectivity titer (TCID50)” value (Huh7.5 cells [2]) of the same substance?
A: Its value is “undeterminable”.

Q: What about the “infectivity titer (TCID50)” value (Huh7.5 cells [2]; listed as pS52/JFH1) of the same substance?
A: Its value is “non-determinable”.

Q: What about the “Peak infectivity titers after transfection” value (Huh7.5 cells [2]; days 3, 7 and 9 post-transfection (FIG. 5B)) of the same substance?
A: Its value is “significantly lower titers”.

Q: And the “% infected cells” value (Huh7.5 cells [3]; First experiment, 2nd viral passage (used for kinetic experiment), day 11)?
A: The value was 95%.

Q: And the “% infected cells” value (Huh7.5 cells [3]; First experiment, 3rd viral passage (inoculated with 10^2.5 TCID50), day 12)?
A: The value was 95%.

Q: What about the “% infected cells” value (Huh7.5 cells [3]; First experiment, 3rd viral passage (inoculated with 10^4 TCID50), day 3) of the same substance?
A: Its value is 90%.

Q: What about the “% infected cells” value (Huh7.5 cells [3]; First experiment, transfection, experimental day 11) of the same substance?
A: Its value is 40%.

Q: What about the “% infected cells” value (Huh7.5 cells [3]; Second experiment, 1st viral passage, experimental day 8) of the same substance?
A: Its value is 95%.

Q: And the “% infected cells” value (Huh7.5 cells [3]; Second experiment, transfection, experimental day 33)?
A: The value was 70%.

Q: And the “NS5A antigen positive cells” value (Huh7.5 cells [3]; day 1 after transfection with RNA transcripts)?
A: The value was ~10%.

Q: And the “time until viruses spread to the entire culture” value (shortened to “time until viruses spread”) (Huh7.5 cells [3]; naive Huh7.5 cells infected with approximately 10^2.5 TCID50)?
A: The value was 12 days.

Q: What about the “time until viruses spread” value (Huh7.5 cells [3]; naive Huh7.5 cells infected with approximately 10^3 TCID50) of the same substance?
A: The value was 9 days.

Q: And the “time until viruses spread” value (Huh7.5 cells [3]; naive Huh7.5 cells infected with approximately 10^4 TCID50)?
A: Its value is 3 days.

Q: Which “HCV antigen positive cells after initiation of treatment” value (shortened to “HCV antigen positive cells”) (J6/JFH1; [4]) does the source give for interferon alfa 2b here?
A: The value was “fast decline”.

Q: And the NS5A positive cells (J6/JFH1; day 3 of treatment, 90 the day prior to treatment)?
A: Its NS5A positive cells is 20%.

Q: What about the NS5A positive cells (J6/JFH1; [5]) of the same substance?
A: Its NS5A positive cells is 40%.

Q: What about the “HCV antigen positive cells” value (S52/JFH1(A4550C)) of the same substance?
A: Its value is “fast decline”.

Q: What about the “HCV antigen positive cells” value (S52/JFH1(T2718G; A4550C); [4]) of the same substance?
A: Its value is “fast decline”.

Q: What about the NS5A positive cells (S52/JFH1(T2718G; A4550C); day 3 of treatment, 60 the day prior to treatment) of the same substance?
A: The NS5A positive cells was 10%.

Q: And the NS5A positive cells (S52/JFH1(T2718G; A4550C); [5])?
A: Its NS5A positive cells is 40%.
